Source: patent US20220298186A1, “BIARYL DIALKYL PHOSPHINE OXIDE FPR2 AGONISTS” (BRISTOL-MYERS SQUIBB COMPANY, priority 2019, published 2022)

Columns and labels:
human FPR1 receptors = target: T1, human FPR1 receptors (Homo sapiens, UniProt P21462); assay: FPR1 cyclic adenosine monophosphate (cAMP) assay; format: cell-based; details: CHO cells overexpressing human FPR1; forskolin 10 μM, IBMX 200 μM; 30 min at rt; inhibition of cAMP production (HTRF); read-out: hFPR1 cAMP EC50
T1 sequence (P21462 1-350): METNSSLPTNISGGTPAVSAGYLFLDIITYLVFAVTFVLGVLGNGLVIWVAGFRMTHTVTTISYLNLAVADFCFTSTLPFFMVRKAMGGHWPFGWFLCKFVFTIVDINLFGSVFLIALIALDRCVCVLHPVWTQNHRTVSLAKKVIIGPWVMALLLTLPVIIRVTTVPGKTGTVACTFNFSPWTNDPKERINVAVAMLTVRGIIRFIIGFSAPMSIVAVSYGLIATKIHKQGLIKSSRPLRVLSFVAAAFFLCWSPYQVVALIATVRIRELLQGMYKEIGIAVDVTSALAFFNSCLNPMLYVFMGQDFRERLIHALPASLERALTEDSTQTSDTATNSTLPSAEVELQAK
Description: (§1) N-formyl peptide receptors (FPRs) are a family of chemo attractant receptors that facilitate leukocyte response during inflammation. FPRs belong to the seven-transmembrane G protein-coupled receptor superfamily and are linked to inhibitory G-proteins (Gi). Three family members (FPR1, FPR2 and FPR3) have been identified in humans and are predominantly found in myeloid cells with varied distribution and have also been reported in multiple organs and tissues. After agonist binding, the FPRs activate a multitude of physiological pathways, such as intra cellular signaling transduction, Ca^2+ mobilization and transcription. The family interacts with a diverse set of ligands that includes proteins, polypeptides and fatty acid metabolites which activate both pro-inflammatory and pro-resolution downstream responses. FPR2 and FPR1 Cyclic Adenosine Monophosphate (cAMP) Assays were used to measure the activity of the compounds in this patent.
(§2) FPR2 and FPR1 Cyclic Adenosine Monophosphate (cAMP) Assays. A mixture of forskolin (5 μM final for FPR2 or 10 μM final for FPR1) and IBMX (200 μM final) were added to 384-well Proxiplates (Perkin-Elmer) pre-dotted with test compounds in DMSO (1% final) at final concentrations in the range of 0.020 nM to 100 μM. Chinese Hamster Ovary cells (CHO) overexpressing human FPR1 or human FPR2 receptors were cultured in F-12 (Ham's) medium supplemented with 10% qualified FBS, 250 μg/mL zeocin and 300 μg/mL hygromycin (Life Technologies). Reactions were initiated by adding 2,000 human FPR2 cells per well or 4,000 human FPR1 cells per well in Dulbecco's PBS (with calcium and magnesium) (Life Technologies) supplemented with 0.1% BSA (Perkin-Elmer). The reaction mixtures were incubated for 30 min at rt. The level of intracellular cAMP was determined using the HTRF HiRange cAMP assay reagent kit (Cisbio) according to manufacturer's instruction. Solutions of cryptate conjugated anti-cAMP and d2 flurorophore-labelled cAMP were made in a supplied lysis buffer separately. Upon completion of the reaction, the cells were lysed with equal volume of the d2-cAMP solution and anti-cAMP solution. After a 1-h rt incubation, time-resolved fluorescence intensity was measured using the Envision (Perkin-Elmer) at 400 nm excitation and dual emission at 590 nm and 665 nm. A calibration curve was constructed with an external cAMP standard at concentrations ranging from 1 μM to 0.1 μM by plotting the fluorescent intensity ratio from 665 nm emission to the intensity from the 590 nm emission against cAMP concentrations. The potency and activity of a compound to inhibit cAMP production was then determined by fitting to a 4-parametric logistic equation from a plot of cAMP level versus compound concentrations.
(§3) The examples disclosed below were tested in the FPR2 and FPR1 cAMP assay described above and found having FPR2 and/or FPR1 agonist activity. Table 1 below lists EC50 values in the FPR2 and FPR1 cAMP assays measured for the following examples.

human FPR2 receptors = target: T2, human FPR2 receptors (Homo sapiens, UniProt P25090); assay: FPR2 cyclic adenosine monophosphate (cAMP) assay; format: cell-based; details: CHO cells overexpressing human FPR2; forskolin 5 μM, IBMX 200 μM; 30 min at rt; inhibition of cAMP production (HTRF); read-out: hFPR2 cAMP2 EC50
T2 sequence (P25090 1-351): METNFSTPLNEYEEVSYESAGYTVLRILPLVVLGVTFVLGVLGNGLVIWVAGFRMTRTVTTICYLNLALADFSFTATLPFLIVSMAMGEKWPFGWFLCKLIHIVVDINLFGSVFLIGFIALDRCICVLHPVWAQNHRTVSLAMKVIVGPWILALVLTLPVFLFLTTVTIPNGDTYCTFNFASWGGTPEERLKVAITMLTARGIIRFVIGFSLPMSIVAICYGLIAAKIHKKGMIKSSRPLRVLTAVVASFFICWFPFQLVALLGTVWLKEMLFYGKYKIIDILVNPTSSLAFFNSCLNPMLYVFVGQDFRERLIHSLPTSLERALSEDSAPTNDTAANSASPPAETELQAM
Description: as §1, §2, §3

`CCP(=O)(CC)c1ccccc1-c1ccc(N2CCC[C@@H](NC(=O)Nc3ncc(Cl)cc3F)C2=O)c(F)c1F` [Example 14, 1-(5-Chloro-3-fluoropyridin-2-yl)-3-[(3R)-1-[2′-(diethylphosphoryl)-2,3-difluoro-[1,1′-biphenyl]-4-yl]-2-oxopiperidin-3-yl]urea] was tested, and the EC50 (human FPR1 receptors) was 1500 nM and the EC50 (human FPR2 receptors) was 6 nM.
For `CP(C)(=O)c1ccccc1-c1ccc(N2CCC[C@@H](NC(=O)Nc3ccc(Cl)cc3F)C2=O)c(F)c1F` [Example 1, (R)-1-(4-Chloro-2-fluorophenyl)-3-(1-(2′-(dimethylphosphoryl)-2,3-difluoro-[1,1′-biphenyl]-4-yl)-2-oxopiperidin-3-yl)urea], the EC50 (human FPR1 receptors) was 110 nM and the EC50 (human FPR2 receptors) was 0.12 nM.
Compound `CP(C)(=O)c1ccccc1-c1ccc(N2CCC[C@@H](NC(=O)Nc3ncc(Cl)cc3F)C2=O)c(C2CC2)c1` [Example 4, 1-(5-Chloro-3-fluoropyridin-2-yl)-3-[(3R)-1-[3-cyclopropyl-2′-(dimethylphosphoryl)-[1,1′-biphenyl]-4-yl]-2-oxopiperidin-3-yl]urea] has an EC50 (human FPR1 receptors) of 7.1 nM and an EC50 (human FPR2 receptors) of 0.63 nM.
Work on `CP(C)(=O)c1ccccc1-c1cc(F)c(N2CCC[C@@H](NC(=O)Nc3ncc(Cl)cc3F)C2=O)c(F)c1` [Example 20, 1-(5-Chloro-3-fluoropyridin-2-yl)-3-[(3R)-1-[2′-(dimethylphosphoryl)-3,5-difluoro-[1,1′-biphenyl]-4-yl]-2-oxopiperidin-3-yl]urea] yielded an EC50 (human FPR1 receptors) greater than 10000 nM and an EC50 (human FPR2 receptors) of 43.2 nM.
`CP(C)(=O)c1ccccc1-c1cc(F)c(N2CCC[C@@H](NC(=O)Nc3ccc(Cl)cc3F)C2=O)c(F)c1` [Example 7, 1-(4-Chloro-2-fluorophenyl)-3-[(3R)-1-[2′-(dimethylphosphoryl)-3,5-difluoro-[1,1′-biphenyl]-4-yl]-2-oxopiperidin-3-yl]urea] gave an EC50 (human FPR1 receptors) of 2600 nM and an EC50 (human FPR2 receptors) of 0.79 nM.
`CP(C)(=O)c1ccccc1-c1cc(F)c(N2CCC[C@@H](NC(=O)Nc3ccc(C(F)(F)F)cc3F)C2=O)c(F)c1` [Example 11, 3-[(3R)-1-[2′-(Dimethylphosphoryl)-3,5-difluoro-[1,1′-biphenyl]-4-yl]-2-oxopiperidin-3-yl]-1-[2-fluoro-4-(trifluoromethyl)phenyl] urea] showed an EC50 (human FPR1 receptors) of 1700 nM and an EC50 (human FPR2 receptors) of 2.6 nM.
Compound `CP(C)(=O)c1ccccc1-c1ccc(N2CCC[C@@H](NC(=O)Nc3ccc(OC(F)(F)F)cc3)C2=O)c(F)c1F` [Example 10, 3-[(3R)-1-[2′-(Dimethylphosphoryl)-2,3-difluoro-[1,1′-biphenyl]-4-yl]-2-oxopiperidin-3-yl]-1-[4-(trifluoromethoxy)phenyl] urea] has an EC50 (human FPR1 receptors) of 370 nM and an EC50 (human FPR2 receptors) of 1.4 nM.
In the case of `CP(C)(=O)c1ccccc1-c1ccc(N2CCC[C@@H](NC(=O)Nc3ncc(C(F)(F)F)cc3F)C2=O)c(F)c1F` [Example 18], the EC50 (human FPR1 receptors) is reported as greater than 10000 nM and the EC50 (human FPR2 receptors) is reported as 11.6 nM.
`CP(C)(=O)c1ccccc1-c1ccc(N2CCC[C@@H](NC(=O)Nc3ccc(Cl)cc3F)C2=O)c(C2CC2)c1` [Example 5, 1-(4-Chloro-2-fluorophenyl)-3-[(3R)-1-[3-cyclopropyl-2′-(dimethylphosphoryl)-[1,1′-biphenyl]-4-yl]-2-oxopiperidin-3-yl]urea] gave an EC50 (human FPR1 receptors) of 17 nM and an EC50 (human FPR2 receptors) of 0.76 nM.
`CP(C)(=O)c1ccccc1-c1ccc(N2CCC[C@@H](NC(=O)Nc3ccc(C(F)(F)F)cn3)C2=O)c(F)c1F` [Example 12, 3-[(3R)-1-[2′-(Dimethylphosphoryl)-2,3-difluoro-[1,1′-biphenyl]-4-yl]-2-oxopiperidin-3-yl]-1-[5-(trifluoromethyl)pyridin-2-yl]urea] gave an EC50 (human FPR1 receptors) of 1300 nM and an EC50 (human FPR2 receptors) of 2.7 nM.
`CP(C)(=O)c1ccccc1-c1ccc(N2CCC[C@@H](NC(=O)Nc3ccc(Cl)cc3F)C2=O)cn1` [Example 19, 1-(4-Chloro-2-fluorophenyl)-3-[(3R)-1-{6-[2-(dimethylphosphoryl)phenyl]pyridin-3-yl}-2-oxopiperidin-3-yl]urea] was tested, and the EC50 (human FPR1 receptors) was 140 nM and the EC50 (human FPR2 receptors) was 16.7 nM.
Work on `CP(C)(=O)c1ccccc1-c1cc(F)c(N2CCC[C@@H](NC(=O)Nc3ccc(OC(F)(F)F)cc3)C2=O)c(F)c1` [Example 21, 3-[(3R)-1-[2′-(Dimethylphosphoryl)-3,5-difluoro-[1,1′-biphenyl]-4-yl]-2-oxopiperidin-3-yl]-1-[4-(trifluoromethoxy)phenyl] urea] yielded an EC50 (human FPR1 receptors) greater than 10000 nM and an EC50 (human FPR2 receptors) of 22.1 nM.
`CCP(=O)(CC)c1ccccc1-c1cc(F)c(N2CCC[C@@H](NC(=O)Nc3ncc(Cl)cc3F)C2=O)c(F)c1` [Example 15, 1-(5-Chloro-3-fluoropyridin-2-yl)-3-[(3R)-1-[2′-(diethylphosphoryl)-3,5-difluoro-[1,1′-biphenyl]-4-yl]-2-oxopiperidin-3-yl]urea] gave an EC50 (human FPR1 receptors) of 7000 nM and an EC50 (human FPR2 receptors) of 8.3 nM.
In the case of `CP(C)(=O)c1ccccc1-c1cc(F)c(N2CCC[C@@H](NC(=O)Nc3cnc(Cl)cn3)C2=O)c(F)c1` [Example 17, 1-(5-Chloropyrazin-2-yl)-3-[(3R)-1-[2′-(dimethylphosphoryl)-3,5-difluoro-[1,1′-biphenyl]-4-yl]-2-oxopiperidin-3-yl]urea], the EC50 (human FPR1 receptors) is reported as greater than 10000 nM and the EC50 (human FPR2 receptors) is reported as 8.6 nM.
`CP(C)(=O)c1ccccc1-c1ccc(N2CCC[C@@H](NC(=O)Nc3ncc(Cl)cc3F)C2=O)c(F)c1F` [Example 9, 1-(5-Chloro-3-fluoropyridin-2-yl)-3-[(3R)-1-[2′-(dimethylphosphoryl)-2,3-difluoro-[1,1′-biphenyl]-4-yl]-2-oxopiperidin-3-yl]urea] gave an EC50 (human FPR1 receptors) of 1400 nM and an EC50 (human FPR2 receptors) of 2.2 nM.
With `CP(C)(=O)c1ccccc1-c1ccc(N2CCC[C@@H](NC(=O)Nc3ccc(C(F)(F)F)cc3F)C2=O)c(F)c1F` [Example 2, 3-[(3R)-1-[2′-(Dimethylphosphoryl)-2,3-difluoro-[1,1′-biphenyl]-4-yl]-2-oxopiperidin-3-yl]-1-[2-fluoro-4-(trifluoromethyl)phenyl] urea] the EC50 (human FPR1 receptors) was 300 nM and the EC50 (human FPR2 receptors) was 0.18 nM.
`COc1ccc(NC(=O)N[C@@H]2CCCN(c3ccc(-c4ccccc4P(C)(C)=O)c(F)c3F)C2=O)c(F)c1` [Example 6, 3-[(3R)-1-[2′-(Dimethylphosphoryl)-2,3-difluoro-[1,1′-biphenyl]-4-yl]-2-oxopiperidin-3-yl]-1-(2-fluoro-4-methoxyphenyl)urea] gave an EC50 (human FPR1 receptors) of 430 nM and an EC50 (human FPR2 receptors) of 0.86 nM.
With `CP(C)(=O)c1ccccc1-c1ccc(N2CCC[C@@H](NC(=O)Nc3ccc(OC(F)(F)F)cc3F)C2=O)c(F)c1F` [Example 16, 3-[(3R)-1-[2′-(Dimethylphosphoryl)-2,3-difluoro-[1,1′-biphenyl]-4-yl]-2-oxopiperidin-3-yl]-1-[2-fluoro-4-(trifluoromethoxy)phenyl] urea] the EC50 (human FPR1 receptors) was 1800 nM and the EC50 (human FPR2 receptors) was 8.4 nM.
`CP(C)(=O)c1ccccc1-c1ccc(N2CCC[C@@H](NC(=O)Nc3cnc(Cl)cn3)C2=O)c(F)c1F` [Example 8, 1-(5-Chloropyrazin-2-yl)-3-[(3R)-1-[2′-(dimethylphosphoryl)-2,3-difluoro-[1,1′-biphenyl]-4-yl]-2-oxopiperidin-3-yl]urea] was tested, and the EC50 (human FPR1 receptors) was 1100 nM and the EC50 (human FPR2 receptors) was 1.5 nM.
